Experimental data: patent US8357676B2, “Ansamycin formulations and methods of use thereof” (Infinity Discovery, Inc., priority 2006, dated 2013)
In brackets after ≈: the same amount, converted by molar mass. Where two headings read alike, the source gives them in different places. One block for each molecule: values may come before it.

What was measured:
[1] = In vitro dissolution of amorphous solid dispersions in simulated intestinal fluid at 37° C.; assay type: physicochemical
Description: […] To each vial was added simulated intestinal fluid (5 mL) and each was shaken at 37° C. […] The samples were then diluted in MeOH and tested using UV method for solution concentration.

[2] = Equilibrium solubility in SIF; assay type: physicochemical; conditions: for solubility: 37 °C; for Crystalline 17-AG Equilibrium Solubility: average values
Description: Solutions were placed at 37° C., and sample aliquots were removed at 24, 48, 72, & 96 hours. Sample aliquots were filtered (0.45 uM PVDF), diluted in SIF/MeOH and measured in triplicate on UV spectrometer.

[3] = Supersaturated levels of 17-AG in SIF pH 6.8 with PVP (DMSO stock diluted 1:100); assay type: physicochemical; conditions: for 17-AG Supersaturated Concentration: 37° C., average values
Description: Supersaturated levels of 17-AG was measured by adding 17-AG DMSO stock solutions (10, 50, 100, & 200 mg/ml) at a 1:100 dilution to SIF pH 6.8 solutions containing 0%, 0.5%, 1%, 2.5%, & 5% PVP (w/v). […] Solutions were stirred in a dissolution apparatus (Paddle speed 150 RPM, 37° C.), and aliquots of each solution were removed at 15, 30, 60, 120, 240, 360, & 1320 minute time points. Sample aliquots were filtered (0.45 uM PVDF), diluted in SIF/MeOH and measured in triplicate on UV spectrometer. Representative data are found in FIG. 25 and FIG. 26.

[4] = test system: H1975, a non-small cell lung cancer cell line; assay: H1975 mouse xenograph tumor model; assay type: in vivo, Nu/Nu mice; conditions: 5% DMSO, 75% NS, oral gavage every other day
Description: In the first study, H1975, a non-small cell lung cancer cell line which contains L858R and T790M mutations in EGFR, a client protein for HSP90 was utilized. 5-6 week old Nu/Nu mice were implanted with 10×10e6H1975 cells. Dosing commenced after implanted cells reached ˜150 mm3. Dosing was by oral gavage and the dosing schedule was every other day with vehicle (20% PGHS, 5% DMSO, 75% NS), and 75 mg/kg, and 100 mg/kg 17-AG in vehicle.

[5] = test system: H1650 lung adenocarcinoma cell line; assay: H1650 mouse xenograph tumor model; assay type: in vivo, Nu/Nu mice; conditions: 50, 75 and 100 mg/kg 17-AG in 15% PVP, 5% EtOH, 80% PG, oral gavage every day
Description: In the second study, H1650 lung adenocarcinoma cell line which contains a mutant form of EGFR (Del E746-A750) was utilized. 5-6 week old Nu/Nu mice were implanted with 10×10e6H1650 cells. Dosing commenced after implanted cells reached ˜100 mm3. Dosing was by oral gavage and the dosing schedule was every day with vehicle (15% PVP, 5% EtOH, 80% PG), and 50 mg/kg, 75 mg/kg, and 100 mg/kg 17-AG in vehicle.

[6] = Oral bioavailability of amorphous 17-AG/PVP dispersion vs crystalline 17-AG, single oral capsule dose; assay type: in vivo; conditions: 15 mg/kg, beagle dogs
Description: A 12% 17-AG/PVP (w/w) dispersion was made utilizing rotary evaporation and characterized for purity, residual solvent level, and amorphous content as described, filled into HPMC capsules and dosed into dogs at a level of 15 mg/kg. Blood was collected pre-dose, at 15 minutes, at 30 minutes, 1 hour, 2 hours, 4 hours, 6 hours, 12 hours, and 24 hours post dose into tubes containing sodium heparin. Collected blood samples were immediately placed on wet ice and refrigerated centrifuge for isolation of plasma within 30 min of collection. Isolated plasma was saved in labeled screw cap freezer vials or eppendorf tubes and stored frozen (−70° C.) until analyzed for plasma 17-AG levels. The design of the study is as follows. A single group of dogs consisting of 2 males & 2 females was utilized for dosing, with a week washout in between each dose.

[7] = In vivo exposure of various oral formulations of 17-AG, single oral dose; conditions: female beagle dogs
Description: The oral bioavailability of various formulations of the compound 17-AG was investigated by making various oral formulations, dosing beagle dogs and measuring 17-AG levels in blood plasma at various time points following a single oral dose. In addition, the effect of PVP on enhancing exposure was investigated by its addition to many of the tested formulations.
In brief, different crystalline, solvated, and amorphous forms of 17-AG were dosed either as filled capsules or as suspensions. In addition, various 17-AG solutions utilizing a range of different organic, anionic, & non-ionic components were dosed by oral gavage.
The crystalline, solvated, and amorphous forms of 17-AG were made as previously described and blended with either anhydrous lactose or PVP in a Turbula blender for 15 minutes. […]
The nanosuspension was made by levigating crystalline 17-AG by high shear in a microfluidizer (Microfluidics Corp, Model: M-110L) for 10-20 minutes in Tween-80. Mean particle size (d50: […]) was measured by laser light diffraction (Malvern Corp, Mastersizer 2000).
Blood was collected pre-dose, 15, 30 minutes, 1, 2, 4, and 8 hours post-dose into tubes containing sodium heparin. […] Isolated plasma was saved in labeled screw cap freezer vials or eppendorf tubes and stored frozen (−70° C.) until analyzed for plasma 17-AG levels. […]

[8] = 12% load analog in PVP K-30 amorphous dispersion, target conc 2 mg/mL, SIF 37° C., t = 5 min
[9] = 12% load analog in PVP K-30 dispersion, SIF 37° C., t = 5 min
[10] = simulated intestinal fluid (SIF), pH 6.8, fassgf or other biorelevant, thermodynamic from solid, read-out: Eq. Solubility of active

SMILES: CO[C@H]1C[C@H](C)CC2=C(N)C(=O)C=C(NC(=O)/C(C)=C/C=C\[C@H](OC)[C@@H](OC(N)=O)/C(C)=C/[C@H](C)C1OC(C)=O)C2=O (stereo partly drawn) [11-acetyl-17-AG, 11-acetyl-17-aminogeldanamycin]
Supersaturated concentration of analog/polymer dispersions in SIF at 37° C. (t = 5 min) [1, 8]: 0.167 mg/ml
Fold increase relative to equilibrium solubility [1, 9]: 2 x
solubility [2, 10]: 88 µg/mL (≈ 150 µM)

SMILES: COC1CC(C)CC2=C(N)C(=O)C=C(NC(=O)C(C)=CC=CC(OC)C(OC(N)=O)C(C)=CC(C)C1=O)C2=O (stereo not drawn) [11-oxo-17-AG, 11-oxo-17-aminogeldanamycin]
Supersaturated concentration of analog/polymer dispersions in SIF at 37° C. (t = 5 min) [1, 8]: 0.395 mg/ml
Fold increase relative to equilibrium solubility [1, 9]: 0 x
Eq. Solubility of active ([2]; pH 6.8): 330 µg/mL

SMILES: CO[C@H]1/C=C\C=C(/C)C(=O)NC2=CC(=O)C(N)=C(C[C@@H](C)C[C@H](OC)[C@H](O)[C@@H](C)/C=C(\C)[C@@H]1OC(N)=O)C2=O [17-AG, 17-amino-geldanamycin]
Supersaturated concentration of analog/polymer dispersions in SIF at 37° C. (t = 5 min) [1, 8]: 0.712 mg/ml
Fold increase relative to equilibrium solubility [1, 9]: 200 x
solubility ([2]; simulated intestinal fluid (SIF), pH 6.8, fassgf or other biorelevant, thermodynamic from solid): 4 µg/mL (≈ 7.33 µM)
solubility thermodynamic ([2]; simulated intestinal fluid (SIF), pH 6.8, fassgf or other biorelevant, thermodynamic from solid, SIF, 37° C., read-out: Equilibrium solubility of 17-AG in SIF @ 37° C.): 4 µg/mL (≈ 7.33 µM)
time at which 17-AG starts to precipitate out ([3]; 1.0 mg/ml solution in 5% PVP): 120 min
17-AG Supersaturated Concentration ([3]; SIF pH 6.8, 0% PVP): 0.5 mg/mL
17-AG Supersaturated Concentration ([3]; SIF pH 6.8, 0.5% PVP): 0.6 mg/mL
17-AG Supersaturated Concentration ([3]; SIF pH 6.8, 1.0% PVP): 0.7 mg/mL
increase of degree of supersaturation of 17-AG ([3]; SIF pH 6.8, 5% PVP vs 0% PVP): ~2 fold
17-AG Supersaturated Concentration ([3]; SIF pH 6.8, 5.0% PVP): 0.9 mg/mL
time at which 17-AG starts to precipitate and come out of solution ([3]; SIF without PVP): approximately 120 minutes
reduction in tumor volume as compared to vehicle treated animals ([4]; 75 mg/kg 17-AG in 20% PGHS): ~35%
reduction in tumor volume as compared to vehicle treated animals ([4]; 100 mg/kg 17-AG in 20% PGHS): ~70%
maximum reduction in tumor volume as compared to vehicle treated animals [5]: 62%

SMILES: CO[C@H]1/C=C\C=C(/C)C(=O)NC2=CC(=O)C(NC(C)=O)=C(C[C@@H](C)C[C@H](OC)[C@H](O)[C@@H](C)/C=C(\C)[C@@H]1OC(N)=O)C2=O [17-acetyl-AG, 17-acetylgeldanamycin]
Supersaturated concentration of analog/polymer dispersions in SIF at 37° C. (t = 5 min) [1, 8]: 1.568 mg/ml
Fold increase relative to equilibrium solubility [1, 9]: ≥ 5 x
solubility [2, 10]: 350 µg/mL (≈ 596 µM)

Supersaturated concentration of analog/polymer dispersions in SIF at 37° C. (t = 5 min) [1, 8]: 0.167 mg/ml
Fold increase relative to equilibrium solubility [1, 9]: 0 x
solubility [2, 10]: 140 µg/mL (≈ 239 µM)
SMILES: CO[C@H]1/C=C\C=C(/C)C(=O)NC2=CC(=O)C(N3CCC3)=C(C[C@@H](C)C[C@H](OC)[C@H](O)[C@@H](C)/C=C(\C)[C@@H]1OC(N)=O)C2=O [17-azetidinyl-G, 17-azetidinylgeldanamycin]

SMILES: CO[C@H]1/C=C\C=C(/C)C(=O)NC2=CC(=O)C(NCc3ccccc3)=C(C[C@@H](C)C[C@H](OC)[C@H](O)[C@@H](C)/C=C(\C)[C@@H]1OC(N)=O)C2=O [17-benzyl-AG, 17-benzylaminogeldanamycin]
Supersaturated concentration of analog/polymer dispersions in SIF at 37° C. (t = 5 min) [1]: 0.165 mg/ml (10x)
Supersaturated concentration in SIF at 5 min ([1]; 12% load analog in PVP K-30 dispersion, SIF 37° C., t = 5 min, the values are: supersaturated concentration in SIF at 5 min): 0.165 mg/mL
solubility [2, 10]: 15 µg/mL (≈ 23.6 µM)

Supersaturated concentration of analog/polymer dispersions in SIF at 37° C. (t = 5 min) [1, 8]: 0.0573 mg/ml
Fold increase relative to equilibrium solubility [1, 9]: 2 x
solubility [2, 10]: 34 µg/mL (≈ 56.7 µM)
SMILES: CO[C@H]1/C=C\C=C(/C)C(=O)NC2=CC(=O)C(NCC3CC3)=C(C[C@@H](C)C[C@H](OC)[C@H](O)[C@@H](C)/C=C(\C)[C@@H]1OC(N)=O)C2=O [17-cyclopropylmethyl-AG, 17-cyclopropylmethylaminogeldanamycin]

SMILES: CO[C@H]1/C=C\C=C(/C)C(=O)NC2=CC(=O)C(NCCF)=C(C[C@@H](C)C[C@H](OC)[C@H](O)[C@@H](C)/C=C(\C)[C@@H]1OC(N)=O)C2=O [17-fluoroethyl-AG, 17-(fluoroethyl)aminogeldanamycin]
Supersaturated concentration of analog/polymer dispersions in SIF at 37° C. (t = 5 min) [1, 8]: 0.234 mg/ml
Fold increase relative to equilibrium solubility [1, 9]: 5 x
solubility [2, 10]: 40 µg/mL (≈ 67.6 µM)

SMILES: CO[C@H]1/C=C\C=C(/C)C(=O)NC2=CC(=O)C(N)=C(C[C@@H](C)C[C@H](OC)[C@H](O)[C@@H](C)/C=C(\C)[C@@H]1OC(N)=O)C2=O [Crystalline 17-AG, 17-amino-geldanamycin]
exposure / oral bioavailability (in words) ([6]; single oral capsule): very low oral bioavailability
Plasma levels of 17-AG following dosing ([6]; uncoated HPMC capsule): below quantifiable limits
Crystalline 17-AG Equilibrium Solubility ([2]; SIF pH 6.8, 0% PVP, 37° C.): 4.1 µg/mL
Crystalline 17-AG Equilibrium Solubility ([2]; SIF pH 6.8, 0.5% PVP, 37° C.): 5.9 µg/mL
Crystalline 17-AG Equilibrium Solubility ([2]; SIF pH 6.8, 1.0% PVP, 37° C.): 6.5 µg/mL
Crystalline 17-AG Equilibrium Solubility ([2]; SIF pH 6.8, 2.5% PVP, 37° C.): 8.7 µg/mL
increase of equilibrium solubility of crystalline 17-AG ([2]; SIF pH 6.8, 5% PVP vs 0% PVP): ~3 fold
Crystalline 17-AG Equilibrium Solubility ([2]; SIF pH 6.8, 5.0% PVP, 37° C.): 11.2 µg/mL

SMILES: CO[C@H]1/C=C\C=C(/C)C(=O)NC2=CC(=O)C(N)=C(C[C@@H](C)C[C@H](OC)[C@H](O)[C@@H](C)/C=C(\C)[C@@H]1OC(N)=O)C2=O [EtOAc Solvate of 17-AG, 17-amino-geldanamycin]
exposure after oral dosing (in words) [7]: low exposure

SMILES: CO[C@H]1/C=C\C=C(/C)C(=O)NC2=CC(=O)C(N)=C(C[C@@H](C)C[C@H](OC)[C@H](O)[C@@H](C)/C=C(\C)[C@@H]1OC(N)=O)C2=O [amorphous 17-AG, 17-amino-geldanamycin]
exposure after oral dosing (in words) [7]: significant exposure
